What was measured:
Experiment in all cases: Kinase panel study
Assay type in all cases: biochemical
Conditions in all cases: read-out: Percentage of inhibition; for inhibition at 1 µM: 1000nM; for inhibition at 10 µM: 10000nM
KIT V559D = biological target: T1, KIT V559D (Homo sapiens, UniProt P10721, V559D)
T1 construct: purchased Thermo Fisher Scientific
Outline: (§1)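 Compounds were tested in vitro against the kinase panel by a service lab. Assays followed standard ZLyte or Adapta protocols. Activity was recorded as % inhibition at 10 µM or 1 µM, with IC50 values where determined.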

IGF1R = biological target: T2, IGF1R (Homo sapiens, UniProt P08069)
T2 construct: purchased Thermo Fisher Scientific
T2 sequence (P08069 31-1367): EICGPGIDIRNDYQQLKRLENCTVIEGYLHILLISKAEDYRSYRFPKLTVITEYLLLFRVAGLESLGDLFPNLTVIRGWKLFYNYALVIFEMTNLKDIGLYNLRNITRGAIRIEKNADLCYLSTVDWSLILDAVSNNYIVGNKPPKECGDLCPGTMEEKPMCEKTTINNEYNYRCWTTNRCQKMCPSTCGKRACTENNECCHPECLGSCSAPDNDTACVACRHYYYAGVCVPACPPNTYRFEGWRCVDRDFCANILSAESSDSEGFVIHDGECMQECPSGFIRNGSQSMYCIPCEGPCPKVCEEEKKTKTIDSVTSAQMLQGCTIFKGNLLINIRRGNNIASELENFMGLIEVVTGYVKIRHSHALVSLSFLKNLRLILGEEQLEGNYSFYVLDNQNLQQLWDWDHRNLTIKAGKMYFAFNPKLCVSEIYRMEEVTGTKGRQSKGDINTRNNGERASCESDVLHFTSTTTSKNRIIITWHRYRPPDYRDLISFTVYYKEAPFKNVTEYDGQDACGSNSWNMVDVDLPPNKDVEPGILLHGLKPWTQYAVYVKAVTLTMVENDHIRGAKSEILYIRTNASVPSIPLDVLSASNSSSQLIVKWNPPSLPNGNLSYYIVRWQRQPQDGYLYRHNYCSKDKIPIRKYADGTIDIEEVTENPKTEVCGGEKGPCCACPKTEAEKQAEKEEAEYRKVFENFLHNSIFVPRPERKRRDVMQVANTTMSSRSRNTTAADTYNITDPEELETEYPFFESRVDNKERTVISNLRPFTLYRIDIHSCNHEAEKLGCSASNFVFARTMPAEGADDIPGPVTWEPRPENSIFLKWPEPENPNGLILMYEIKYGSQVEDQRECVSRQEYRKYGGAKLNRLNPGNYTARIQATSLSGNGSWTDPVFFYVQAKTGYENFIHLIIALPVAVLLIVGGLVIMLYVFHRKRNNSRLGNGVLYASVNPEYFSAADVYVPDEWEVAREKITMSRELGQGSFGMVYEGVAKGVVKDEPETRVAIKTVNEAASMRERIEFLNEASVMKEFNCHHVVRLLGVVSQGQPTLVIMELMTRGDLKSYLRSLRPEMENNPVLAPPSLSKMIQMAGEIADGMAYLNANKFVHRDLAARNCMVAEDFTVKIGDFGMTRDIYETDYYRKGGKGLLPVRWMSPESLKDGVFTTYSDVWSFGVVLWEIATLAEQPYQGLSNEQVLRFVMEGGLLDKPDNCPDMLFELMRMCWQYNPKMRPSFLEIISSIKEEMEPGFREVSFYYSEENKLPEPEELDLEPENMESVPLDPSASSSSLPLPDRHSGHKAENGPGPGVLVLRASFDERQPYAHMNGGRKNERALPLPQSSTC
Outline: as §1

MAPK12 (p38 gamma) = biological target: T3, MAPK12 (p38 gamma) (Homo sapiens, UniProt P53778)
T3 construct: purchased Thermo Fisher Scientific
T3 sequence (P53778 1-367): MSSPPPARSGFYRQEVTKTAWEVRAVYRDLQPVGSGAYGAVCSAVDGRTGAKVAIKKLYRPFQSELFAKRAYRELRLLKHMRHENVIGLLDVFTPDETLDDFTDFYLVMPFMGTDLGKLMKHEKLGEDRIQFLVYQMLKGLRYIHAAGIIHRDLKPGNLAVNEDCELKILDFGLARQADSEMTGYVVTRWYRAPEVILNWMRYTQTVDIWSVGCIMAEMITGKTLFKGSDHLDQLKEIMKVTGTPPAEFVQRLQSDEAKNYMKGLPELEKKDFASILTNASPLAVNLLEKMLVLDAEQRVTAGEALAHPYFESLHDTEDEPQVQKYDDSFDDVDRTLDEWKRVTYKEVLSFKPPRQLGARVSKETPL
Outline: as §1

PRKCI (PKC iota) = biological target: T4, PRKCI (PKC iota) (Homo sapiens, UniProt P41743)
T4 construct: purchased Thermo Fisher Scientific
T4 sequence (P41743 1-596): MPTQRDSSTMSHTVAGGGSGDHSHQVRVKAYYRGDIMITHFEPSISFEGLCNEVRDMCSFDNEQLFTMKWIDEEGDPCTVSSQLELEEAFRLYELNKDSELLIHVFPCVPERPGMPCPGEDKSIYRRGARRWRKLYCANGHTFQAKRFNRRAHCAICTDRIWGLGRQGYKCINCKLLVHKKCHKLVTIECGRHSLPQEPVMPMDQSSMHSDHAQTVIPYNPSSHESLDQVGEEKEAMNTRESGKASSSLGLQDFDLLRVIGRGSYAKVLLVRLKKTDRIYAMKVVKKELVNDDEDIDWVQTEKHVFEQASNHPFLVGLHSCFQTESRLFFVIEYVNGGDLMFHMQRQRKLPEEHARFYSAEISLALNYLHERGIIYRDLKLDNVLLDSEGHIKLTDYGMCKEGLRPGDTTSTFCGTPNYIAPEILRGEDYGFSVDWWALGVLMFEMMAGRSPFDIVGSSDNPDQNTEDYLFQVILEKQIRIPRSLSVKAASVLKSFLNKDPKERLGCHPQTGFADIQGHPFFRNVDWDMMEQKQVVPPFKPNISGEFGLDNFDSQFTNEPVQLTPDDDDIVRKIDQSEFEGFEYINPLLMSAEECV
Outline: as §1

MAP4K4 (HGK) = biological target: T5, MAP4K4 (HGK) (Homo sapiens, UniProt O95819)
T5 construct: purchased Thermo Fisher Scientific
T5 sequence (O95819 whole entry): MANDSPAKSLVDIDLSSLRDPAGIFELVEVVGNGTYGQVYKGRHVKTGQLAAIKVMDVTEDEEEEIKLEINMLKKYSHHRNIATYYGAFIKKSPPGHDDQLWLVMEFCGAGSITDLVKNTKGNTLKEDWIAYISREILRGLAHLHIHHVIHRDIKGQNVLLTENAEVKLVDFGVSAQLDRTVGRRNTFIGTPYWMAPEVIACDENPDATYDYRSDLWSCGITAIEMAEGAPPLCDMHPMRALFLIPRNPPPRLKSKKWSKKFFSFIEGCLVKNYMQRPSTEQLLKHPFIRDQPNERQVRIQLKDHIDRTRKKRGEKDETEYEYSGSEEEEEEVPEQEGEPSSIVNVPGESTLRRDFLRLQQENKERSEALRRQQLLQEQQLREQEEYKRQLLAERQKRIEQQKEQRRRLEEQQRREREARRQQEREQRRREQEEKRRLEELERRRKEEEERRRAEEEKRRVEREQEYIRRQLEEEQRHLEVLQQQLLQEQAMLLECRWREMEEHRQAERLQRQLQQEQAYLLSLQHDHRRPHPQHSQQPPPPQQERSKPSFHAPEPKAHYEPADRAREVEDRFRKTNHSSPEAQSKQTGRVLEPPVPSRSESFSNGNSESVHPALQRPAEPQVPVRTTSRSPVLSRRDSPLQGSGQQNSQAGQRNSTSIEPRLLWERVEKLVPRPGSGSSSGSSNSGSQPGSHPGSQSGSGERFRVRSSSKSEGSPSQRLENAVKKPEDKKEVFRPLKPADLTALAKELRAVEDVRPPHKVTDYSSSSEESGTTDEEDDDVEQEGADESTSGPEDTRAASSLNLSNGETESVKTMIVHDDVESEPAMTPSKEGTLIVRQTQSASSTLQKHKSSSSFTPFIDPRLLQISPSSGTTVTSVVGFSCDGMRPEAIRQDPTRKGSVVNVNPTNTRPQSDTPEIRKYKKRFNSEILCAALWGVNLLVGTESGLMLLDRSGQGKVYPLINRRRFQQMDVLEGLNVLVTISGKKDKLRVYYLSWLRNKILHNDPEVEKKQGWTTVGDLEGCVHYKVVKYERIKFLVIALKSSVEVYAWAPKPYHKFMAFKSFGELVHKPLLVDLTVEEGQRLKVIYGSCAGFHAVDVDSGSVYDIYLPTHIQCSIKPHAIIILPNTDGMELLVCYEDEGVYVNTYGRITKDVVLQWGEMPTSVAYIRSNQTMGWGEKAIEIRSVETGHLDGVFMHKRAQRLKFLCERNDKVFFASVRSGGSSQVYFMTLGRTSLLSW
Outline: as §1

CSNK1A1L = biological target: T6, CSNK1A1L (Homo sapiens, UniProt Q8N752)
T6 construct: purchased Thermo Fisher Scientific
T6 sequence (Q8N752 1-337): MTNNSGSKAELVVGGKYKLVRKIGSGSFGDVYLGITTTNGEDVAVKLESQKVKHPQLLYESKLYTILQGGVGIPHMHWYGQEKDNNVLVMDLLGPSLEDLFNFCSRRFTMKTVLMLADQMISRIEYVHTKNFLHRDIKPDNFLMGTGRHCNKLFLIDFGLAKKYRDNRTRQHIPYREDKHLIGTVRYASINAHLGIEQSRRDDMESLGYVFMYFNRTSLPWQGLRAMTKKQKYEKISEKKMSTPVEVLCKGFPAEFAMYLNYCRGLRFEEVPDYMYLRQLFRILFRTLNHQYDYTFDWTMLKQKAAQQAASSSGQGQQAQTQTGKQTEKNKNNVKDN
Outline: as §1

T1 sequence (P10721 26-976 V559D): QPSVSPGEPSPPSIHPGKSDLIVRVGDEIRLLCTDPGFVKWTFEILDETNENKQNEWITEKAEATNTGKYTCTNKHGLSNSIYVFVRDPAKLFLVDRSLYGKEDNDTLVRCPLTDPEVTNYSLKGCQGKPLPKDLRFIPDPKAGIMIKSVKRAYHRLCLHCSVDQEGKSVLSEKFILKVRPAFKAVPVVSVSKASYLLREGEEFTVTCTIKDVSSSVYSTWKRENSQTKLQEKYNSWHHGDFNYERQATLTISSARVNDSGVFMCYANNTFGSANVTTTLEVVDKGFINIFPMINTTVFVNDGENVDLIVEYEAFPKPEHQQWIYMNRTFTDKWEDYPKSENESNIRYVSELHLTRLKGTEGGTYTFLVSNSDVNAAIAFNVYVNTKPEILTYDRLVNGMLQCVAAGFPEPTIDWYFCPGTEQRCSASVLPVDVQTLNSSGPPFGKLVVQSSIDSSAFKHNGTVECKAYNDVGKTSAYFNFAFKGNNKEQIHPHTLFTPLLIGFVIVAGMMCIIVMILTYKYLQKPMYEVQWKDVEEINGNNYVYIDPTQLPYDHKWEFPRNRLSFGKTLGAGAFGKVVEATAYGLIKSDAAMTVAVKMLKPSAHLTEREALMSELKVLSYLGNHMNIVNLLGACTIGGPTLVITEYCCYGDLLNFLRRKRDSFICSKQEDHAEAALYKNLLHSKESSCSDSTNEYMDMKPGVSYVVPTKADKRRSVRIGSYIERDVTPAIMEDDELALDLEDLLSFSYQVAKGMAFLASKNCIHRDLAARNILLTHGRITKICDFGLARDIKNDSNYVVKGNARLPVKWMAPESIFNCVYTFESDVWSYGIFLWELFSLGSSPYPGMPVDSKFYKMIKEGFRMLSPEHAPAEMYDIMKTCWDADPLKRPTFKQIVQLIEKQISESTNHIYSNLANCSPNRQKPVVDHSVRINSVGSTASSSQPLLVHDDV

Row | Compound | inhibition at 1 µM (KIT V559D) | inhibition at 10 µM (KIT V559D) | inhibition at 1 µM (IGF1R) | inhibition at 10 µM (IGF1R) | inhibition at 1 µM (MAPK12 (p38 gamma)) | inhibition at 10 µM (MAPK12 (p38 gamma)) | inhibition at 1 µM (PRKCI (PKC iota)) | inhibition at 10 µM (PRKCI (PKC iota)) | inhibition at 1 µM (MAP4K4 (HGK)) | inhibition at 10 µM (MAP4K4 (HGK)) | inhibition at 1 µM (CSNK1A1L) | inhibition at 10 µM (CSNK1A1L)
1 | COc1ccc2c(c1OC)c(=O)n1c3ccc(O)cc3c3ccnc2c31 [MW01, 5-Hydroxy-10,11-dimethoxy-9H-benzo[c]indolo[3,2,1-ij][1,5]naphthyridin-9-one] | 11% | 25% | 11% | 31% | 8% | 11% | 4% | -8% | 64% | 80% | 1% | 11%
2 | COc1ccc2cc3c(N)nn(C(=O)c4cccc(N(C)C)c4)c3nc2c1 [MW05, (3-Amino-7-methoxypyrazolo[3,4-b]quinolin-1-yl)-[3-(dimethylamino)phenyl]methanone] | 13% | 15% | -1% | -12% | 4% | 4% | 20% | 6% | 9% | 11% | 1% | 1%
